From patent publication US7601746B2 (Shionogi & Co., Ltd., priority 2003, dated 2009)

Biological target: T1, human TPO receptor (hTPOR) (Homo sapiens, UniProt P40238)
T1 construct: expressed in transfected cells; host or cells: BaF-B03 (murine IL-3 dependent cell line)
T1 sequence (P40238 26-635): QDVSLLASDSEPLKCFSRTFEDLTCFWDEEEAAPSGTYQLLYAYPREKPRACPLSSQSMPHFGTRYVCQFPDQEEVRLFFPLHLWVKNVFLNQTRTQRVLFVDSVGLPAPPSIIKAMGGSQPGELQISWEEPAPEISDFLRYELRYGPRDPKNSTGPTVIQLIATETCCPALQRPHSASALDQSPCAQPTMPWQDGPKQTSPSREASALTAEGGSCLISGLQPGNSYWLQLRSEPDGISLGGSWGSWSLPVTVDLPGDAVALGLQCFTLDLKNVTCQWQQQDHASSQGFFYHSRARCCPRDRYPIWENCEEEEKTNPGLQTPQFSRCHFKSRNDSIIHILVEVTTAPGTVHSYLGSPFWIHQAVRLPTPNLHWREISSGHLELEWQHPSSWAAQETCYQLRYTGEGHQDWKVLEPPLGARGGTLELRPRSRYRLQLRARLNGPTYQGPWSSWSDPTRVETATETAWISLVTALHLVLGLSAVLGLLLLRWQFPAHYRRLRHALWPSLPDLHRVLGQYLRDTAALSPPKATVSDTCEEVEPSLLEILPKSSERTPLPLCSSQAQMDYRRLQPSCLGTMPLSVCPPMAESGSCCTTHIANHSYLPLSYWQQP
Test: Thrombopoietic activity: proliferation of TPO dependent BaF/hTPOR cells (WST-1, absorbance at 450 nm)
Type: cell-based
Conditions: 20 h + 4 h WST-1, ED50 = half concentration of the concentration showing the maximum thrombopoietic activity, Table 1
In short: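 Proliferation read-out: WST-1 absorbance at 450 nm after 20 h compound exposure plus 4 h reagent, using IL-3-deprived BaF/hTPOR cells (5×10^4 per well) dependent on human TPO receptor signalling. ED50 defined as half the concentration producing maximal activity.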

Compound	EC50
CCC(CC)COCc1cccc(-c2csc(NC(=O)c3cc(Cl)c(/C=C(\OC)C(=O)O)c(Cl)c3)n2)c1OC [Compound B2026, (Z)-3-(2,6-dichloro-4-{4-[3-(2-ethylbutyloxymethyl)-2-methyloxyphenyl]thiazol-2-ylcarbamoyl}phenyl)-2-methyloxyacrylic acid]	12.6 nM
COc1c(COCCC(C)C)cccc1-c1csc(NC(=O)c2cc(F)c(/C=C(\C)C(=O)O)c(F)c2)n1 [Compound B2027, (E)-3-(2,6-difluoro-4-{4-[2-methyloxy-3-(3-methylbutyloxymethyl)phenyl]thiazol-2-ylcarbamoyl}phenyl)-2-methylacrylic acid]	12.6 nM
COc1c(COCCC(C)C)cccc1-c1csc(NC(=O)c2cc(Cl)c(/C=C(\C)C(=O)O)c(Cl)c2)n1 [Compound B2028, (E)-3-(2,6-dichloro-4-{4-[2-methyloxy-3-(3-methylbutyloxymethyl)phenyl]thiazol-2-ylcarbamoyl}phenyl)-2-methylacrylic acid]	11.4 nM
CCCCCCCCCC(OC)c1cccc(-c2csc(NC(=O)c3cc(F)c(/C=C(\C)C(=O)O)c(F)c3)n2)c1OCC (stereo not shown) [Compound B2099, (E)-3-(4-{4-[2-ethyloxy-3-(1-methyloxydecyl)phenyl]thiazol-2-ylcarbamoyl}-2,6-difluorophenyl)-2-methylacrylic acid]	2.91 nM
